Data as given in patent US20230271770A1, “Anti-Viral Pharmaceutical Formulations Administered Via Devices for Lung Targeted Delivery” (priority 2020, published 2023).

Columns and labels:
[1] = human, in vivo, po; cited from earlier work
[2] = In-line Cascade Impactor (Andersen) evaluation, MDI actuator through elbow connection and ventilator tubing; type: physicochemical; parameters: Delivered <1.1 mcm / Delivered <4.7 mcm: unit not given here; details: 5% EtOH; for Delivered <4.7 mcm: Plate 3~5
Experimental: An example of a ventilator device, for example ventilator device 1700A, was tested and compared to a self-administrable, handheld MDI to determine the target site delivery efficiency in the ventilator circuit as compared to the MDI delivery efficiency without the ventilator circuit (e.g. no elbow connector or ventilator tubing).
Prime HCQ valve by discharging a predetermined number of actuations to waste. Discharge 10 actuations with actuator H004B-a into the cascade impaction sampling apparatus through an elbow connection w/inner channel and an in-line tubing (55 cm long).
Prime HCQ valve by discharging a predetermined number of actuations to waste. Discharge 10 actuations with actuator H004B-c into the cascade impaction sampling apparatus through an elbow connection with an inner channel and an in-line tubing (55 cm long).
Prime HCQ valve by discharging a predetermined number of actuations to waste. […]

[3] = Estimated HCQ concentration in alveolar fluid (oral tablets, inhalation); parameters: species or system human
Experimental: The HCQ molecules in the plasma can penetrate capillaries outside the alveolar membrane to reach the alveolar lining fluid (“ALF”).
A similar analysis was performed for HCQ administered by inhalation.

[4] = Cascade Impactor (Andersen) test, MDI actuator for stand-alone (handheld) use; type: physicochemical
Text: The particle size of an inhalation drug may be measured by an instrument called a Cascade Impactor, which consists of multiple discs. The size of the discs is graduated to properly determine the size of the particulate matter at various stages of the Cascade Impactor, which each represent the drug delivery to different portions of the entire respiratory tract. The Cascade Impactor collects samples of the drug in a graduated manner on each disc such that the average particle size of the collected drugs can be measured for each stage.
As discussed above, the particle size of an inhalation drug, namely the API, can be measured by a Cascade Impactor (Westech Instruments), which consists of multiple stages (0-7). The particle sizes at each stage are listed in Table 8, which represents the drug delivery to different portions of the entire respiratory tract using a stand-alone MDI actuator, for example actuator 500, discussed above.
As described above, the disclosed MDI actuator nozzles may include an inner diameter that is optimized to dispense fine API particle sizes, such as API particles having a diameter of about 1.1 μm or less. Table 12, below, outlines a study of the amount percentage (%) of fine API particles having particle diameters of less than about 1.1 μm versus nozzle inner diameter size of the disclosed MDI actuators, for example MDI actuator 500. […] The general components of MDI actuator 500 was utilized, but different nozzle inner diameter sizes were tested in this study. In particular, 3 different MDI actuators were tested: (1) MDI actuator having 0.42 mm nozzle inner diameter (“MDI Actuator A”), (2) MDI actuator having 0.28 mm nozzle inner diameter (“MDI Actuator B”), and (3) MDI actuator having 0.20 mm nozzle inner diameter (“MDI Actuator C”).

[5] = HCQ particles typically inhaled to treat asthma; cited from earlier work

For CCN(CCO)CCCC(C)Nc1ccnc2cc(Cl)ccc12 (stereo not shown) [HCQ, hydroxychloroquine], the BA [1] is listed as 74%, the “share of tablet dose distributed to red blood cells or other protein in blood” value [1] is listed as “approximately 0.25%” and the “share of tablet dose not absorbed or initially metabolized in liver” value [1] is listed as “approximately 26%”. For the same molecule, the “Delivery Rate” value ([2]; Alveoli, <1.1 mcm, in-Linc Tube (15 cm), HCQB-c, connection w/o inner channel, 200 mcg (#6)) was 34.2%, the “Delivery Rate” value ([2]; Alveoli, <1.1 mcm, in-Line Tube (15 cm), HCQB-a, connection w/o inner channel, 200 mcg) was 32.2% and the “Delivery Rate” value ([2]; Alveoli, <1.1 mcm, in-Line Tube (15 cm), HCQB-b, connection w/o inner channel, 200 mcg) was 31.3%. The “Delivery Rate” value ([2]; Alveoli, <1.1 mcm, in-Line Tube (15 cm), HCQB-c, connection w/o inner channel, 200 mcg (#4)) was 43.3%, the “Delivery Rate” value ([2]; Alveoli, <1.1 mcm, in-Line Tube (15 cm), HCQB-d, connection w/o inner channel, Ave, 200 mcg) was 36.9% and the “Delivery Rate” value ([2]; Alveoli, <1.1 mcm, in-Line Tube (15 cm), HCQB-f, connection w/o inner channel, 200 mcg) was 23.2%. The “Delivery Rate” value ([2]; Alveoli, <1.1 mcm, in-Line Tube (15 cm), HCQB-g, connection w/inner channel, 200 mcg) was 34.0%, the “Delivery Rate” value ([2]; Alveoli, <1.1 mcm, in-Line Tube (15 cm), HCQB-g, connection w/o inner channel, 200 mcg) was 31.5% and the “Delivery Rate” value ([2]; Alveoli, <1.1 mcm, in-Line Tube (15 cm), HCQB-h, connection w/ inner channel, 200 mcg) was 35.9%. For the same molecule, the “Delivery Rate” value ([2]; Alveoli, <1.1 mcm, in-Line Tube (15 cm), HCQB-h, connection w/o inner channel, 200 mcg) was 31.1%, the “Delivery Rate” value ([2]; Alveoli, <1.1 mcm, in-Line Tube (15 cm), HCQB-i, connection w/inner channel, 200 mcg) was 27.5% and the “Delivery Rate” value ([2]; Alveoli, <1.1 mcm, in-Line Tube (15 cm), HCQB-i, connection w/o inner channel, 200 mcg) was 37.9%. For the same molecule, the “Delivery Rate” value ([2]; Alveoli, <1.1 mcm, in-Line Tube (15 cm), HCQB-j, connection w/o inner channel, 200 mcg) was 29.1%, the “Delivery Rate” value ([2]; Alveoli, <1.1 mcm, in-Line Tube (55 cm), HCQB-a, connection w/inner channel, 200 mcg) was 19.3% and the “Delivery Rate” value ([2]; Alveoli, <1.1 mcm, in-Line Tube (55 cm), HCQB-b, connection w/inner channel, 200 mcg) was 26.9%. For the same molecule, the “Delivery Rate” value ([2]; Alveoli, <1.1 mcm, in-Line Tube (55 cm), HCQB-c, connection w/inner channel, Ave, 200 mcg) was 37.9%, the “Delivery Rate” value ([2]; Alveoli, <1.1 mcm, in-Line Tube (55 cm), HCQB-d, connection w/inner channel, 200 mcg) was 26.4% and the “Delivery Rate” value ([2]; Alveoli, <1.1 mcm, in-Line Tube (55 cm), HCQB-f, connection w/inner channel, Ave, 200 mcg) was 34.7%. For the same molecule, the “Delivery Rate” value ([2]; Alveoli, <1.1 mcm, in-Line Tube (55 cm), HCQB-j, connection w/ inner channel, 200 mcg) was 30.3%, the “Delivered <1.1 mcm” value ([2]; Alveoli, in-Linc Tube (15 cm), HCQB-c, connection w/o inner channel, 200 mcg (#6)) was 68.4 and the “Delivered <1.1 mcm” value ([2]; Alveoli, in-Line Tube (15 cm), HCQB-a, connection w/o inner channel, 200 mcg) was 64.4. The “Delivered <1.1 mcm” value ([2]; Alveoli, in-Line Tube (15 cm), HCQB-b, connection w/o inner channel, 200 mcg) was 62.6, the “Delivered <1.1 mcm” value ([2]; Alveoli, in-Line Tube (15 cm), HCQB-c, connection w/o inner channel, 200 mcg (#4)) was 86.6 and the “Delivered <1.1 mcm” value ([2]; Alveoli, in-Line Tube (15 cm), HCQB-d, connection w/o inner channel, Ave, 200 mcg) was 73.8. The “Delivered <1.1 mcm” value ([2]; Alveoli, in-Line Tube (15 cm), HCQB-f, connection w/o inner channel, 200 mcg) was 46.3, the “Delivered <1.1 mcm” value ([2]; Alveoli, in-Line Tube (15 cm), HCQB-g, connection w/inner channel, 200 mcg) was 68.0 and the “Delivered <1.1 mcm” value ([2]; Alveoli, in-Line Tube (15 cm), HCQB-g, connection w/o inner channel, 200 mcg) was 63.0. For the same molecule, the “Delivered <1.1 mcm” value ([2]; Alveoli, in-Line Tube (15 cm), HCQB-h, connection w/ inner channel, 200 mcg) was 71.7, the “Delivered <1.1 mcm” value ([2]; Alveoli, in-Line Tube (15 cm), HCQB-h, connection w/o inner channel, 200 mcg) was 62.1 and the “Delivered <1.1 mcm” value ([2]; Alveoli, in-Line Tube (15 cm), HCQB-i, connection w/inner channel, 200 mcg) was 55.0. For the same molecule, the “Delivered <1.1 mcm” value ([2]; Alveoli, in-Line Tube (15 cm), HCQB-i, connection w/o inner channel, 200 mcg) was 75.7, the “Delivered <1.1 mcm” value ([2]; Alveoli, in-Line Tube (15 cm), HCQB-j, connection w/o inner channel, 200 mcg) was 58.1 and the “Delivered <1.1 mcm” value ([2]; Alveoli, in-Line Tube (55 cm), HCQB-a, connection w/inner channel, 200 mcg) was 38.5. For the same molecule, the “Delivered <1.1 mcm” value ([2]; Alveoli, in-Line Tube (55 cm), HCQB-b, connection w/inner channel, 200 mcg) was 53.8, the “Delivered <1.1 mcm” value ([2]; Alveoli, in-Line Tube (55 cm), HCQB-c, connection w/inner channel, Ave, 200 mcg) was 75.8 and the “Delivered <1.1 mcm” value ([2]; Alveoli, in-Line Tube (55 cm), HCQB-d, connection w/inner channel, 200 mcg) was 52.8. The “Delivered <1.1 mcm” value ([2]; Alveoli, in-Line Tube (55 cm), HCQB-f, connection w/inner channel, Ave, 200 mcg) was 69.4, the “Delivered <1.1 mcm” value ([2]; Alveoli, in-Line Tube (55 cm), HCQB-j, connection w/ inner channel, 200 mcg) was 60.5 and the “Delivery Rate” value ([2]; Plate 3~5, <4.7 mcm, in-Line Tube (15 cm), HCQB-g, connection w/inner channel, 200 mcg) was 30.5%. For the same molecule, the “Delivery Rate” value ([2]; Plate 3~5, <4.7 mcm, in-Line Tube (15 cm), HCQB-h, connection w/inner channel, 200 mcg) was 25.8%, the “Delivery Rate” value ([2]; Plate 3~5, <4.7 mcm, in-Line Tube (15 cm), HCQB-i, connection w/inner channel, 200 mcg) was 22.8% and the “Delivery Rate” value ([2]; Plate 3~5, <4.7 mcm, in-Line Tube (55 cm), HCQB-a, connection w/inner channel, 200 mcg) was 13.3%. The “Delivery Rate” value ([2]; Plate 3~5, <4.7 mcm, in-Line Tube (55 cm), HCQB-b, connection w/inner channel, 200 mcg) was 21.3%, the “Delivery Rate” value ([2]; Plate 3~5, <4.7 mcm, in-Line Tube (55 cm), HCQB-c, connection w/inner channel, 200 mcg) was 29.0% and the “Delivery Rate” value ([2]; Plate 3~5, <4.7 mcm, in-Line Tube (55 cm), HCQB-d, connection w/inner channel, 200 mcg) was 23.3%. The “Delivery Rate” value ([2]; Plate 3~5, <4.7 mcm, in-Line Tube (55 cm), HCQB-e, connection w/inner channel, 200 mcg) was 29.0%, the “Delivery Rate” value ([2]; Plate 3~5, <4.7 mcm, in-Line Tube (55 cm), HCQB-f, connection w/inner channel, 200 mcg) was 28.3% and the “Delivery Rate” value ([2]; Plate 3~5, <4.7 mcm, in-Line Tube (55 cm), HCQB-j, connection w/inner channel, 200 mcg) was 20.0%. The “Delivered <4.7 mcm” value ([2]; in-Line Tube (15 cm), HCQB-g, connection w/inner channel, 200 mcg) was 60.9, the “Delivered <4.7 mcm” value ([2]; in-Line Tube (15 cm), HCQB-h, connection w/inner channel, 200 mcg) was 51.6 and the “Delivered <4.7 mcm” value ([2]; in-Line Tube (15 cm), HCQB-i, connection w/inner channel, 200 mcg) was 45.5. For the same molecule, the “Delivered <4.7 mcm” value ([2]; in-Line Tube (55 cm), HCQB-a, connection w/inner channel, 200 mcg) was 26.5, the “Delivered <4.7 mcm” value ([2]; in-Line Tube (55 cm), HCQB-b, connection w/inner channel, 200 mcg) was 42.6 and the “Delivered <4.7 mcm” value ([2]; in-Line Tube (55 cm), HCQB-c, connection w/inner channel, 200 mcg) was 57.9. For the same molecule, the “Delivered <4.7 mcm” value ([2]; in-Line Tube (55 cm), HCQB-d, connection w/inner channel, 200 mcg) was 46.6, the “Delivered <4.7 mcm” value ([2]; in-Line Tube (55 cm), HCQB-e, connection w/inner channel, 200 mcg) was 57.9 and the “Delivered <4.7 mcm” value ([2]; in-Line Tube (55 cm), HCQB-f, connection w/inner channel, 200 mcg) was 56.5. For the same molecule, the “Delivered <4.7 mcm” value ([2]; in-Line Tube (55 cm), HCQB-j, connection w/inner channel, 200 mcg) was 39.9, the “estimated concentration of HCQ in alveolar fluid” value (shortened to “estimated concentration of HCQ”) ([3]; after administration of HCQ by inhalation) was “up to 22 μM” and the “estimated concentration of HCQ” value ([3]; oral tablets, Day-1 (800 mg dose, after 2nd 400 mg dose)) was 0.45 µM. The “estimated concentration of HCQ” value ([3]; oral tablets, Day-1 after the 1st 400 mg dose) was 0.23 µM, the “estimated concentration of HCQ” value ([3]; oral tablets, Day-2) was 0.67 µM and the “estimated concentration of HCQ” value ([3]; oral tablets, Day-5 (total dose of 2,400 mg)) was 1.3 µM. For the same molecule, the “EPM (6-filter; P6-F, <1.1 μm for Alveoli), Compared to strength (delivery rate)” value (from here on “EPM … Compared to strength (delivery rate)”) ([4]; Actuator A (nozzle 0.42 mm)) was 21.6%, the “EPM … Compared to strength (delivery rate)” value ([4]; Actuator B (nozzle 0.28 mm)) was 39.7% and the “EPM … Compared to strength (delivery rate)” value ([4]; Actuator C (nozzle 0.20 mm)) was “about 53.9%”. The “Delivery Rate” value ([4]; Alveoli, <1.1 mcm, actuator O-0.20, 5% EtOH, 200 mcg) was 44.5%, the “Delivery Rate” value ([4]; Alveoli, <1.1 mcm, actuator O-0.20, 5% EtOH, 200 mcg (Table 21)) was 44.5% and the “Delivered <1.1 mcm” value ([4]; Alveoli, actuator O-0.20, 5% EtOH, 200 mcg) was 89. For the same molecule, the “Delivered <1.1 mcm” value ([4]; Alveoli, actuator O-0.20, 5% EtOH, 200 mcg (Table 21)) was 89, the “Delivery Rate” value ([4]; Plate 3~5, <4.7 mcm, actuator O-0.20, 5% EtOH, 200 mcg) was 50.7% and the “Delivered <4.7 mcm” value ([4]; Plate 3~5, actuator O-0.20, 5% EtOH, 200 mcg) was 101.3. For the same molecule, the “mean HCQ particle size” value [5] was 3.2 μm.
